# Patent US20220362245A1, “COMPOUNDS FOR INHIBITING FGFR4” (Terns Pharmaceuticals, Inc., priority 2019, published 2022)
# Key:
# FGFR1 = FGFR1 (Homo sapiens, UniProt P11362); test: FGFR inhibition assay (33P-ATP radiometric kinase assay), FGFR1; type: biochemical; conditions: 20 μM KKKSPGEYVNIEFG peptide substrate, 10 μM final ATP, 2 hours at room temperature
# Experimental: (§1) The potency of test compounds in inhibiting FGFR1 and FGFR4 was determined. 20 μM of [KKKSPGEYVNIEFG] peptide substrate was added to the reaction buffer (20 mM 4-(2-hydroxyethyl)-1-piperazineethanesulfonic acid (HEPES) (pH 7.5), 10 mM MgCl2, 1 mM egtazic acid (EGTA), 0.02% BRIJ®-35, 0.02 mg/ml bovine serum albumin (BSA), 0.1 mM Na3VO4, 2 mM dithiothreitol (DTT), and 1% DMSO) for FGFR1. 0.2 mg/mL of poly[Glu:Tyr] (4:1) peptide substrate was added to the reaction buffer (20 mM 4-(2-hydroxyethyl)-1-piperazineethanesulfonic acid (HEPES) (pH 7.5), 10 mM MgC12, 1 mM egtazic acid (EGTA), 0.02% BRIJ®-35, 0.02 mg/ml bovine serum albumin (BSA), 0.1 mM Na3VO4, 2 mM dithiothreitol (DTT), and 1% DMSO) for FGFR4. Next, FGFR1 or FGFR4 was added to the substrate solution and gently mixed.
# (§2) Test compounds were dissolved in 100% dimethyl sulphoxide (DMSO) and then three-fold serially diluted in DMSO using an epMotion® 5070 robotic pipettor. The diluted test compounds, from 0.00001 M to 5.08053E-10 M, were added to corresponding substrate solutions, and the resulting substrate/compound solutions were incubated for 20 min at room temperature. Radioactive ATP (^33P-ATP) was added to each substrate/compound solution to initiate the kinase activity of FGFR1 or FGFR4 and were incubated for 2 hours at room temperature (10 μM final [ATP]). Reactions were spotted onto P81 ion exchange paper, washed to remove excess radiolabeled ATP and kinase activity determined by quantification of radioactive spots.
# (§3) The half maximal inhibitory concentration (IC50) values for FGFR1 and FGFR4 were determined for each compound assayed and are shown in Table 2.
# FGFR4 = FGFR4 (Homo sapiens, UniProt P22455); test: FGFR inhibition assay (33P-ATP radiometric kinase assay), FGFR4; type: biochemical; conditions: for IC50: 0.2 mg/mL poly[Glu:Tyr] (4:1) substrate, 10 μM final ATP, 2 hours at room temperature; for inhibition of FGFR4 compared with FGFR1 (selectivity): concentration inhibiting FGFR4 versus concentration inhibiting FGFR1, from Table 2 IC50 values
# Experimental: as §1, §2, §3
# FGFR1, sequence (P11362 22-822): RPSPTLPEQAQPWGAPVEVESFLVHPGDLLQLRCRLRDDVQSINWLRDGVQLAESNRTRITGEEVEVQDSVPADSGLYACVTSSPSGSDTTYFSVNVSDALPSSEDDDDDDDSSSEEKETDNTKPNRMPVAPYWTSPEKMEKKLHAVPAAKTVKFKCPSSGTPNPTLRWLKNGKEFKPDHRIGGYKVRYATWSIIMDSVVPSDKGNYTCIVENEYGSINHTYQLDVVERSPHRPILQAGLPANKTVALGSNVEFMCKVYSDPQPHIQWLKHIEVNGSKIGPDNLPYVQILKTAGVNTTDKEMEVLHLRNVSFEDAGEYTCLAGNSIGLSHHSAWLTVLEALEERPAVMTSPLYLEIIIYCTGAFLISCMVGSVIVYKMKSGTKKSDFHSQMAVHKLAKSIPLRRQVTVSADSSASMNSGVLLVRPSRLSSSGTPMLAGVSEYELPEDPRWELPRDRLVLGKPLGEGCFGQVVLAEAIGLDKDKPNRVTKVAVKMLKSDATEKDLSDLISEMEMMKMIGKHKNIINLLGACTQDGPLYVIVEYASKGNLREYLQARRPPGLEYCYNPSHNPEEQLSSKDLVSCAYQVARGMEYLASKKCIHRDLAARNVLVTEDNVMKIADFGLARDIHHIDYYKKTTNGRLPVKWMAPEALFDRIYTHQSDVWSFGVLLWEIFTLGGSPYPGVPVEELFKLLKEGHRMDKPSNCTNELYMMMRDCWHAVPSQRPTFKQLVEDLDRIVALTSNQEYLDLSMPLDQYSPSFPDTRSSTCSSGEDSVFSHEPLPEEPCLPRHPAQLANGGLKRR
# FGFR4, sequence (P22455 22-802): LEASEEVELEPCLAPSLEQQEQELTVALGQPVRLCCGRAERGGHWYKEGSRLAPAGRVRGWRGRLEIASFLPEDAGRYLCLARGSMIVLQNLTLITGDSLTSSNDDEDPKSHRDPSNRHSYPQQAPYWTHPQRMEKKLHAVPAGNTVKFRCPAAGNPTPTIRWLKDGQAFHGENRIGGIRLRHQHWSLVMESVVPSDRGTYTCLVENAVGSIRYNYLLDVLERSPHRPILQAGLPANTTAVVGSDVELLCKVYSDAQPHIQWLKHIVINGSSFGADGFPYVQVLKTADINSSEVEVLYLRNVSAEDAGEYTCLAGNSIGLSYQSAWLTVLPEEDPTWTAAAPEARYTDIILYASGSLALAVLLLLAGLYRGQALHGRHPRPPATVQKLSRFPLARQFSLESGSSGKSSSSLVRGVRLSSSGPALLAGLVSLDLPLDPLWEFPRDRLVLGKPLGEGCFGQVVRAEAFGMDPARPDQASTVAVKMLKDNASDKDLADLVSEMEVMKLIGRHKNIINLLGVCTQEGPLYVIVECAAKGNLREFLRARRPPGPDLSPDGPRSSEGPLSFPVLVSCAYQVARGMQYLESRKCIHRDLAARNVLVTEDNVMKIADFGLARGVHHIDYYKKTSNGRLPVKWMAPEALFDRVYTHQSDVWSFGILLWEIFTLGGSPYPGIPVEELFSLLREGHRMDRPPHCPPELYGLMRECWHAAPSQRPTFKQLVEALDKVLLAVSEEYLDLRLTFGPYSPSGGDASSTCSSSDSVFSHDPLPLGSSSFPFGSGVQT
SMILES,IC50 (FGFR1) [nM],IC50 (FGFR4) [nM],inhibition of FGFR4 compared with FGFR1 (selectivity) (FGFR4)
"COc1cc(OC)c(F)c(C#Cc2cnc(NC(=O)N3CCCc4ccc(C=O)nc43)nc2)c1F [Example 8, N-(5-((2,6-difluoro-3,5-dimethoxyphenyl)ethynyl)pyrimidin-2-yl)-7-formyl-3,4-dihydro-1,8-naphthyridine-1(211)-carboxamide]",330,2.5,
"COc1cc(OC)c(F)c(COc2ccc(NC(=O)N3CCCc4ccc(C=O)nc43)nc2)c1F [Example 2, N-(5-((2,6-difluoro-3,5-dimethoxybenzyl)oxy)pyridin-2-yl)-7-formyl-3,4-dihydro-1,8-naphthyridine-1(2H)-carboxamide]",> 10000,5.9,dramatically lower concentration
"COc1cc(OC)c(F)c(COc2cnc(NC(=O)N3CCCc4c(C)cc(C=O)nc43)nc2)c1F [Example 5, N-(5-((2,6-difluoro-3,5-dimethoxybenzyl)oxy)pyrimidin-2-yl)-7-formyl-5-methyl-3,4-dihydro-1,8-naphthyridine-1(2H)-carboxamide]",130,1.9,
"COc1cc(OC)c(F)c(COc2cnc(NC(=O)N3CCCc4cc(CN5CCN(C)CC5=O)c(C=O)nc43)nc2)c1F [Example 3, N-(5-((2,6-difluoro-3,5-dimethoxybenzyl)oxy)pyrimidin-2-yl)-7-formyl-6-((4-methyl-2-oxopiperazin-1-yl)methyl)-3,4-dihydro-1,8-naphthyridine-1(2H)-carboxamide]",140,< 0.5,
"COc1cc(OC)c(F)c(CCc2cnc(NC(=O)N3CCCc4ccc(C=O)nc43)nc2)c1F [Example 6, N-(5-(2,6-difluoro-3,5-dimethoxyphenethyl)pyrimidin-2-yl)-7-formyl-3,4-dihydro-1,8-naphthyridine-1(2H)-carboxamide]",63,1,
"COc1cc(OC)c(F)c(/C=C/c2cnc(NC(=O)N3CCCc4ccc(C=O)nc43)nc2)c1F [Example 7, (E)-N-(5-(2,6-difluoro-3,5-dimethoxystyryl)pyrimidin-2-yl)-7-formyl-3,4-dihydro-1,8-naphthyridine-1(2H)-carboxamide]",1000,0.9,
"COc1cc(OC)c(F)c(COc2cnc(NC(=O)N3CCCc4ccc(C=O)nc43)nc2)c1F [Example 1, N-(5-((2,6-difluoro-3,5-dimethoxybenzyl)oxy)pyrimidin-2-yl)-7-formyl-3,4-dihydro-1,8-naphthyridine-1(2H)-carboxamide]",5600,0.8,dramatically lower concentration
